Measurements as given in patent publication US20080317702A1, “METHOD FOR TREATING MICROORGANISMS AND/OR INFECTIOUS AGENTS” (priority 2007, published 2008).
Several values for one entry are separate records, joined by “and”; a condition that tells them apart may be missing. Identical values can stand only once.

Tested on: HeLa cells
Experiment: Toxicity to HeLa cells in culture, MTT (Example 23)
Format: cell-based, human
Conditions: 48 hours of culture
Description: The toxicity of Example 1 is compared to Chlorohexidine gluconate (a commonly used oral antiseptic) to human HeLa cells in culture is determined. HeLa cells are plated at subconfluency into a 96-well plate tissue culture plate, and after attachment, treated with the indicated final concentrations of Example 1 polymer or Chlorohexidine gluconate in triplicates. After 48 hours of culture, MTT reagent is added for two 2 hours to permit the development of viability-indicating color. 1 μM PAO (phenylarsine oxide) is used as a positive (effective killing) control. […] Furthermore, the minimum inhibitory concentration of Example 1 polymer is found to be about 10^−3% while that for the chlorohexidine gluconate is 6×10^−5%. This means that the Example 1 polymer is about […] less toxic to HeLa cells in culture than chlorohexidine gluconate.

Compound: N=C(NCCCCCCNC(=N)NC(=N)Nc1ccc(Cl)cc1)NC(=N)Nc1ccc(Cl)cc1.O=C(O)[C@H](O)[C@@H](O)[C@H](O)[C@H](O)CO.O=C(O)[C@H](O)[C@@H](O)[C@H](O)[C@H](O)CO [chlorohexidine gluconate]
- Lethal dose 50 (LD50) for HeLa cells: ~0.0004% and > 1.2×10^−4%
